In patent publication US10799478B2, “Treatment of androgen deprivation therapy associated symptoms” (priority 2014, dated 2020):
Like-named read-outs stand apart in the source and are kept apart here.

How the values were obtained:
[1] = test system: dogs; experiment: 6 month treatment of dogs (Table 10); assay type: in vivo, dog; details: 6 months
[2] = test system: male rats; experiment: Male Fertility and Toxicokinetic Study in Rats; assay type: in vivo, rat
Experimental: The purpose of this study is to determine the potential adverse effects in the reproductive process resulting from treatment of male rats prior to, and during, the mating period. This includes identification of functional reproductive effects in the male.
Male rats (20/group) are treated daily for 10 weeks prior to mating, throughout the 3-week mating period, and continuing through the day prior to euthanasia (for a total of 100 to 101 doses). Female rats are not treated. All animals are observed twice daily for moribundity and mortality. Clinical observations are recorded daily for male rats; body weights and food consumption are recorded for males twice weekly. All males are euthanized 1 day following the last dose administration. Spermatogenic endpoint evaluations conducted on all males include motility and morphology and epididymal sperm concentration. Testes, epididymis, prostate and seminal vesicle/coagulating gland/fluid from all males are weighed and retained. Testes, epididymis, prostate, seminal vesicles and coagulating glands from surviving males are examined microscopically. A laparohysterectomy is performed on Gestation Day 15 for each female with evidence of mating. An additional 3, 18, 18, and 18 males assigned to the toxicokinetic phase are given the compound at doses of 0, 3, 30, and 1000 mg/kg, respectively, and are sampled for toxicokinetic evaluation at appropriate intervals following dose administration on Study Days 0 and 70.

[3] = test system: beagle dogs; experiment: 52 Week Toxicity and Toxicokinetic Study in Dogs; assay type: in vivo, dog
Experimental: (§1) Male and female purebred beagle dogs are assigned to groups, and doses are administered according to Table 9 via oral capsules containing 1 ml/kg of 0 [1% (w/v) carboxymethylcellulose sodium (low viscosity/25-50 cps), 0.5% (w/v) sodium lauryl sulfate and 0.05% (v/v) Dow Corning® Antifoam 1510-US in reverse osmosis water] […] All animals receive the same number of capsules, and Group 1 animals receive capsules containing vehicle control article only. Three animals per sex from Groups 1 and 4 are designated as recovery animals.
(§2) Assessment of toxicity is based on mortality, clinical signs, body weight and body weight change, food consumption, ophthalmic and neurologic evaluations, ECG measurements, hormone analysis (testosterone, progesterone, luteinizing hormone, and follicle stimulating hormone), semen evaluation (ejaculate volume and sperm number, density, morphology, and motility), and clinical and anatomic pathology. Blood samples are collected for exploratory metabolite analysis and toxicokinetic evaluations.

[4] = 52 Week Toxicity and Toxicokinetic Study in Dogs; assay type: in vivo, dog; details: beagle, dog, in vivo; for Cmax / AUC(0-t): po
Experimental: as §1, §2

[5] = test system: LnCAP human prostate cancer cells; experiment: LnCAP Gene Expression; assay type: cell-based
[6] = test system: healthy human volunteers; experiment: Phase Ib Study of Healthy Volunteers; assay type: in vivo; details: males
[7] = Allometric prediction of human clearance, bioavailability and dose
[8] = test system: ORX Wistar male rats; experiment: In Vivo Study to Explore Direct Antagonist Effect of Example 1 in the Presence of TE; parameters: species or system rat; details: for Seminal Vesicle Wet Weights, Abs(Dif) − LSD / Prostate Weights, Abs(Dif) − LSD: vs TE alone; for Prostate Weight, % Sham / SV Weight, % Sham: 8 weeks
Experimental: Route of administration for all groups except TE is oral. TE is administered subcutaneously. At the end of 8 weeks of daily dosing, rats are euthanized, weighed & tissue harvested. Levator ani, prostates, and seminal vesicles are collected from each animal. Results are plotted as means±SE.

[9] = in vivo; details: both, Sprague-Dawley, rat, in vivo, po
Experimental: (§3) Vehicle controls (15 rats/sex in main study and 5 rats/sex in recovery study) are given daily oral gavage dose of 5% Vitamin E TPGS, 1% hydroxyethylcellulose, 0.05% Dow Corning Antifoam 1510-US in purified water. Fifteen males and 15 females are assigned to each treatment main study group. Five males and 5 females are assigned to the recovery study for the vehicle control and 150 mg/kg/day groups. […] All administrations are given in a 15 mL/kg volume.

[10] = test system: Sprague-Dawley rat; experiment: in vivo; details: for Male group mean AUC0-24 hr near termination / Prostate weight (mean % decrease): rats, 6 months
Experimental: as §3

[11] = ORX + TE 1 mg/kg/d + Example 1 3 mg/kg/d po
[12] = ORX + TE 1 mg/kg/d + Example 1 3 mg/kg/d
[13] = ORX + TE 1 mg/kg/d + Example 1 10 mg/kg/d po
[14] = ORX + TE 1 mg/kg/d + Example 1 10 mg/kg/d
[15] = ORX + TE 1 mg/kg/d + Example 1 30 mg/kg/d

CC(C)OC(=O)N[C@H]1Cc2c(n(Cc3ccccn3)c3ccc(C#N)cc23)C1 (single isomer, unassigned) [Example 1]
Prostate weight (mean % decrease) ([1]; 3 mg/kg/day): ↓ 63%
Prostate weight (mean % decrease) ([1]; 30 mg/kg/day): ↓ 66%
Prostate weight (mean % decrease) ([1]; 300 mg/kg/day): ↓ 75%
mating, fertility, and copulation indices ([2]; 1000 mg/kg group males): lower
increase of mean exposure (AUC0-24 hr) between 3 and 30 mg/kg ([2]; Day 0): approximately 7.8 fold
increase of mean exposure (AUC0-24 hr) between 3 and 30 mg/kg ([2]; Day 70): ~4.5 fold
Mean body weights, body weight gains, and food consumption ([2]; all dosage levels): unaffected
Intrauterine survival of the embryos ([2]; males dosed 3, 30, 1000 mg/kg): unaffected
survival until the scheduled sacrifice ([3]; 3, 10, 100 mg/kg): All animals survived
Accumulation after multiple dosing ([3]; dogs, 3 to 100 mg/kg): observed
NOAEL at 52 weeks ([4]; both sexes, oral, daily capsule, 52 weeks): 100 mg/kg
Cmax ([4]; female, females, 100 mg/kg, after 361 days of dosing): 1880 ng/mL
AUC(0-t) ([4]; female, females, 100 mg/kg, after 361 days of dosing, read-out: AUC0-24 h): 31500 ng·h/mL
AUC(0-t) ([4]; male, dogs, 12 months, 3 mg/kg/day, read-out: Male group mean AUC0-24 hr near termination): 3620 ng·h/mL
Cmax ([4]; male, males, 100 mg/kg, after 361 days of dosing): 1500 ng/mL
EC50 ([5]; Homo sapiens, LNCaP, AR gene, read-out: LnCAP Gene Expression EC50 (nM) AR): 1.64 nM
androgenicity in vitro in human prostate cancer cells ([5]; comparison with R1881): less androgenic than R1881
Change from Baseline for P1NP, Comparison to Placebo Difference ([6]; 1 mg, day 14): -2.40 µg/L
Change from Baseline for Procollagen Type I N Propeptide (P1NP), LS Mean ([6]; 1 mg, day 14): -3.55 µg/L
Change from Baseline for P1NP, Comparison to Placebo Difference ([6]; 1 mg, day 28): 1.49 µg/L
Change from Baseline for Procollagen Type I N Propeptide (P1NP), LS Mean ([6]; 1 mg, day 28): 0.16 µg/L
Change from Baseline for P1NP, Comparison to Placebo Difference ([6]; 1 mg, day 35): -2.26 µg/L
Change from Baseline for Procollagen Type I N Propeptide (P1NP), LS Mean ([6]; 1 mg, day 35): -5.70 µg/L
Change from Baseline for P1NP, Comparison to Placebo Difference ([6]; 5 mg, day 14): 3.27 µg/L
Change from Baseline for Procollagen Type I N Propeptide (P1NP), LS Mean ([6]; 5 mg, day 14): 2.11 µg/L
Change from Baseline for P1NP, Comparison to Placebo Difference ([6]; 5 mg, day 28): 4.20 µg/L
Change from Baseline for Procollagen Type I N Propeptide (P1NP), LS Mean ([6]; 5 mg, day 28): 2.88 µg/L
Change from Baseline for P1NP, Comparison to Placebo Difference ([6]; 5 mg, day 35): 1.13 µg/L
Change from Baseline for Procollagen Type I N Propeptide (P1NP), LS Mean ([6]; 5 mg, day 35): -2.31 µg/L
Change from Baseline for P1NP, Comparison to Placebo Difference ([6]; 15 mg, day 14): 2.49 µg/L
Change from Baseline for Procollagen Type I N Propeptide (P1NP), LS Mean ([6]; 15 mg, day 14): 1.34 µg/L
Change from Baseline for P1NP, Comparison to Placebo Difference ([6]; 15 mg, day 28): 3.41 µg/L
Change from Baseline for Procollagen Type I N Propeptide (P1NP), LS Mean ([6]; 15 mg, day 28): 2.09 µg/L
Change from Baseline for P1NP, Comparison to Placebo Difference ([6]; 15 mg, day 35): 0.03 µg/L
Change from Baseline for Procollagen Type I N Propeptide (P1NP), LS Mean ([6]; 15 mg, day 35): -3.41 µg/L
Change from Baseline for P1NP, Comparison to Placebo Difference ([6]; 25 mg, day 14): -0.92 µg/L
Change from Baseline for Procollagen Type I N Propeptide (P1NP), LS Mean ([6]; 25 mg, day 14): -2.07 µg/L
Change from Baseline for P1NP, Comparison to Placebo Difference ([6]; 25 mg, day 28): 2.75 µg/L
Change from Baseline for Procollagen Type I N Propeptide (P1NP), LS Mean ([6]; 25 mg, day 28): 1.43 µg/L
Change from Baseline for P1NP, Comparison to Placebo Difference ([6]; 25 mg, day 35): 0.47 µg/L
Change from Baseline for Procollagen Type I N Propeptide (P1NP), LS Mean ([6]; 25 mg, day 35): -2.97 µg/L
Change from Baseline for P1NP, Comparison to Placebo Difference ([6]; 75 mg, day 14): -3.81 µg/L
Change from Baseline for Procollagen Type I N Propeptide (P1NP), LS Mean ([6]; 75 mg, day 14): -4.96 µg/L
Change from Baseline for P1NP, Comparison to Placebo Difference ([6]; 75 mg, day 28): 2.81 µg/L
Change from Baseline for Procollagen Type I N Propeptide (P1NP), LS Mean ([6]; 75 mg, day 28): 1.48 µg/L
Change from Baseline for P1NP, Comparison to Placebo Difference ([6]; 75 mg, day 35): 2.35 µg/L
Change from Baseline for Procollagen Type I N Propeptide (P1NP), LS Mean ([6]; 75 mg, day 35): -1.09 µg/L
predicted human bioavailability [7]: 49%
allometrically predicted human clearance ([7]; 90% CI 24 to 46): 33 Uh
Seminal Vesicle Wet Weights, Abs(Dif) − LSD ([8]; ORX + Example 1 10 mg/kg/d without TE): 1.411
Prostate Weight, % Sham [8, 11]: 42.7 % Sham
SV Weight, % Sham [8, 11]: 53.5 % Sham
Prostate Weights, Abs(Dif) − LSD [8, 12]: −0.11
Seminal Vesicle Wet Weights, Abs(Dif) − LSD [8, 12]: −0.34
Prostate Weight, % Sham [8, 13]: 30.3 % Sham
SV Weight, % Sham [8, 13]: 42.0 % Sham
Prostate Weights, Abs(Dif) − LSD [8, 14]: 0.036
Seminal Vesicle Wet Weights, Abs(Dif) − LSD [8, 14]: 0.078
Prostate Weight, % Sham ([8]; ORX + TE 1 mg/kg/d + Example 1 30 mg/kg/d po): 31.2 % Sham
Prostate Weights, Abs(Dif) − LSD [8, 15]: 0.025
Seminal Vesicle Wet Weights, Abs(Dif) − LSD [8, 15]: 0.536
prostate wet weight in mg normalized to body weight ([8]; co-treatment with 1 mg/Kg TE): dose-dependent decrease
seminal vesicle wet weight in mg normalized to body weight, induced by TE alone ([8]; combination with TE 1 mg/Kg-day and various doses of Example 1): trend in decreasing
NOAEL [9]: < 15 mg/kg/day
morphologic findings in the testes ([10]; all dose levels (15, 150, 1500 mg/kg/day)): considered to be adverse
accumulation after multiple doses ([10]; any dose group up to Day 182): not observed
higher body weight than concurrent controls ([10]; females, end of treatment period): 22%
body weight change compared to control ([10]; males, end of treatment period): −12%
Male group mean AUC0-24 hr near termination ([10]; 15 mg/kg/day): 15902 ng·h/mL
Male group mean AUC0-24 hr near termination ([10]; 150 mg/kg/day): 34132 ng·h/mL
Prostate weight (mean % decrease) ([10]; 150 mg/kg/day): ↓ 30%
Male group mean AUC0-24 hr near termination ([10]; 1500 mg/kg/day): 82690 ng·h/mL
Prostate weight (mean % decrease) ([10]; 1500 mg/kg/day): ↓ 34%
